In PubChem BioAssay (NCI) one finds TGI data, which are given here for ten compounds.

Among the test systems are EKVX NSCLC; HOP-92 NSCLC; MDA-MB-231 breast; MDA-N; MOLT-4 leukemia; OVCAR-5 ovarian; OVCAR-8 ovarian; RXF 393 renal; SF-295 CNS; SK-MEL-5 melanoma; SK-OV-3 ovarian; SW-620 colon; UACC-62 melanoma; BT-549 breast; T-47D breast.
Holding throughout (test): NCI anticancer screen, dose series, 48 h

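Interpolation was linear, between the two tested concentrations surrounding the appropriate level; five concentrations were tested over 48 hours in 96-well plates. The concentration for full growth arrest is given as TGI.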 A value given as a limit tells only on which side of the number the result lay.

In the case of `CCCN(CCC)C(=S)N/N=C/c1cccc(C)n1`, the TGI in the assay on EKVX NSCLC is 8.34 µM; in the assay on HOP-92 NSCLC it was > 100 µM; with MDA-MB-231 breast it was 2.03 µM; with MDA-N, 22.6 µM; with MOLT-4 leukemia, 0.588 µM; in the assay on OVCAR-5 ovarian, 47.2 µM. Moreover, the TGI is 0.729 µM with OVCAR-8 ovarian; 0.637 µM in the assay on RXF 393 renal; 7.53 µM in the assay on SF-295 CNS; 0.654 µM in the assay on SK-MEL-5 melanoma; 15.7 µM in the assay with SK-OV-3 ovarian; > 100 µM in the assay on SW-620 colon. Further, the TGI in the assay with UACC-62 melanoma turned out to be 9.45 µM.

For `Cn1c(=S)[nH]c2c(Cl)cc(Cl)cc2c1=O`, the TGI with BT-549 breast, in the assay on EKVX NSCLC, in the assay on HOP-92 NSCLC, in the assay with MDA-MB-231 breast, in the assay with MDA-N and in the assay on MOLT-4 leukemia was > 100 µM in each case. The TGI in the assay with OVCAR-5 ovarian, in the assay with OVCAR-8 ovarian, in the assay with RXF 393 renal, in the assay with SF-295 CNS, with SK-MEL-5 melanoma and in the assay with SK-OV-3 ovarian was > 100 µM in each case. Also, the TGI in the assay with SW-620 colon and in the assay on UACC-62 melanoma was > 100 µM throughout.

As for `[N-]=[N+]=Nc1cc(=O)n(-c2ccccc2)c(=O)n1-c1ccccc1`, the TGI in the assay with BT-549 breast, in the assay on EKVX NSCLC, in the assay with HOP-92 NSCLC, with MDA-MB-231 breast, in the assay on MOLT-4 leukemia and in the assay on OVCAR-5 ovarian was > 100 µM throughout. The TGI in the assay with OVCAR-8 ovarian, with RXF 393 renal, in the assay with SF-295 CNS, in the assay on SK-MEL-5 melanoma, in the assay on SK-OV-3 ovarian and in the assay on SW-620 colon was > 100 µM throughout. The TGI in the assay on T-47D breast and in the assay with UACC-62 melanoma was > 100 µM each time.

For `CCOC(=O)C(NC(=O)NCc1ccc(F)cc1)C(F)(F)F` (centres undefined), the TGI with BT-549 breast, in the assay with EKVX NSCLC, in the assay with MDA-N, with OVCAR-5 ovarian, in the assay with OVCAR-8 ovarian and in the assay with RXF 393 renal was > 100 µM in each case. In addition, the TGI in the assay on SK-MEL-5 melanoma, in the assay with SK-OV-3 ovarian, in the assay on SW-620 colon and in the assay on T-47D breast was > 100 µM each time.

Regarding `Cc1nc2c(n1CCCl)C(=O)c1ccccc1C2=O`, the TGI with BT-549 breast is 38.3 µM; in the assay with EKVX NSCLC, > 100 µM; in the assay with HOP-92 NSCLC, 72.1 µM; in the assay on MDA-MB-231 breast, 56.5 µM; in the assay with MDA-N, 32.6 µM; with MOLT-4 leukemia, 78 µM. For the same compound, the TGI came out at 36.3 µM with OVCAR-5 ovarian; 42.6 µM in the assay on OVCAR-8 ovarian; 46.2 µM with RXF 393 renal; 62.6 µM in the assay with SF-295 CNS; 79.6 µM in the assay on SK-OV-3 ovarian; 88.9 µM with SW-620 colon. Moreover, in the assay on UACC-62 melanoma, the TGI worked out at 44.2 µM.

For `CC1=C/C(=N\N(C)C)C(C(O)(C(F)(F)F)C(F)(F)F)C(C)(C)C1` (centres undefined), the TGI in the assay with EKVX NSCLC was > 100 µM; in the assay on HOP-92 NSCLC it was 81 µM; in the assay with MDA-MB-231 breast, > 100 µM; with MDA-N, > 100 µM; with MOLT-4 leukemia, > 100 µM; with OVCAR-5 ovarian, > 100 µM. The TGI in the assay on OVCAR-8 ovarian, in the assay on RXF 393 renal, in the assay with SF-295 CNS, with SK-MEL-5 melanoma, in the assay with SW-620 colon and with T-47D breast was > 100 µM in each case. The TGI in the assay on UACC-62 melanoma is > 100 µM.

Turning to `CC1N(O)C(c2ccccc2)C(c2ccccc2)=[N+]1[O-]` (centres undefined), the TGI with BT-549 breast, in the assay with EKVX NSCLC, in the assay on HOP-92 NSCLC, in the assay with MDA-MB-231 breast, in the assay on MDA-N and in the assay with MOLT-4 leukemia was > 100 µM throughout. Moreover, the TGI in the assay on OVCAR-5 ovarian, in the assay with OVCAR-8 ovarian, with RXF 393 renal, with SF-295 CNS, with SK-MEL-5 melanoma and in the assay with SK-OV-3 ovarian was > 100 µM in each case. In addition, the TGI with SW-620 colon and in the assay on UACC-62 melanoma was > 100 µM in each case.

As for `CCOC(=O)C1C(C(C)C)C2(C#N)C(=N)OC1(C)C2(C#N)C#N` (centres undefined), the TGI with EKVX NSCLC is > 100 µM; in the assay on HOP-92 NSCLC it was > 100 µM; in the assay on MDA-MB-231 breast, > 100 µM; in the assay with MDA-N, 33.6 µM; in the assay with OVCAR-5 ovarian it was > 100 µM; with OVCAR-8 ovarian it was > 100 µM. The TGI in the assay on RXF 393 renal, in the assay with SF-295 CNS, with SK-MEL-5 melanoma, with SK-OV-3 ovarian, with SW-620 colon and with T-47D breast was > 100 µM each time. Further, the TGI with UACC-62 melanoma was > 100 µM.

For the compound `Nc1ccccc1C(=O)NNC(=O)c1ccccc1N`, the TGI in the assay with EKVX NSCLC, in the assay with HOP-92 NSCLC, in the assay with MDA-MB-231 breast, with MDA-N, with MOLT-4 leukemia and in the assay with OVCAR-5 ovarian was > 100 µM in each case. For the same compound, the TGI in the assay on OVCAR-8 ovarian, in the assay with RXF 393 renal, in the assay with SF-295 CNS, in the assay on SK-MEL-5 melanoma, in the assay with SK-OV-3 ovarian and in the assay with SW-620 colon was > 100 µM in each case. Besides, the TGI in the assay on T-47D breast and in the assay on UACC-62 melanoma was > 100 µM throughout.

On to `CC/C(=C/OC)P1(=O)OC(C)(C)CN1C(C)(C)C` (centres undefined), for which the TGI with BT-549 breast, with EKVX NSCLC, in the assay with MDA-MB-231 breast, in the assay with OVCAR-5 ovarian, in the assay with OVCAR-8 ovarian and in the assay on SF-295 CNS was > 100 µM throughout. Further, the TGI with SK-MEL-5 melanoma, with SK-OV-3 ovarian, with SW-620 colon, with T-47D breast and in the assay with UACC-62 melanoma was > 100 µM throughout.
